Data: the supplement of paper PMC10307832

Legend:
Test in all cases: relative viability (nuclei count vs DMSO), 5 days (fraction); higher = more cells survive
BAM7 + OSI-027 = compound: CCOC1=CC=CC=C1N=NC2=C(NN(C2=O)C3=NC(=CS3)C4=CC=CC=C4)C [BAM7] + COc1cccc2cc(-c3nc([C@H]4CC[C@H](C(=O)O)CC4)n4ncnc(N)c34)[nH]c12 [OSI-027] (partner 0.5 µM)
Outline: (§1)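 Five library-drug doses in √10 steps were combined with a fixed anchor-drug dose, or a single drug was given alone, by pin tool to lung cancer cell lines in 1536-well plates the day after seeding. Nuclei were stained and counted after 5 days. Relative viability is the nuclei count in treated wells over that in vehicle wells, taken as the median of duplicate plates.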

BAM7 + Tozasertib = compound: CCOC1=CC=CC=C1N=NC2=C(NN(C2=O)C3=NC(=CS3)C4=CC=CC=C4)C [BAM7] + Cc1cc(Nc2cc(N3CCN(C)CC3)nc(Sc3ccc(NC(=O)C4CC4)cc3)n2)n[nH]1 [Tozasertib] (partner 0.1 µM)
Outline: as §1

BAM7 + AZD7762 = compound: CCOC1=CC=CC=C1N=NC2=C(NN(C2=O)C3=NC(=CS3)C4=CC=CC=C4)C [BAM7] + NC(=O)Nc1cc(-c2cccc(F)c2)sc1C(=O)N[C@H]1CCCNC1 [AZD7762] (partner 0.2 µM)
Outline: as §1

[1] = compound: CCn1c(-c2nonc2N)nc2c(C#CC(C)(C)O)ncc(OC[C@H]3CCCNC3)c21 + Cc1nc(NC(=O)N2CCC[C@H]2C(N)=O)sc1-c1ccnc(C(C)(C)C(F)(F)F)c1 [Alpelisib] (partner 2 µM)
Outline: as §1

Row | Cell Line | relative viability (BAM7 + OSI-027; first compound 0.5 µM) | relative viability (BAM7 + OSI-027; first compound 5 µM) | relative viability (BAM7 + OSI-027; first compound 15.81 µM) | relative viability (BAM7 + OSI-027; first compound 50 µM) | relative viability (BAM7 + Tozasertib; first compound 0.5 µM) | relative viability (BAM7 + Tozasertib; first compound 5 µM) | relative viability (BAM7 + Tozasertib; first compound 15.81 µM) | relative viability (BAM7 + Tozasertib; first compound 50 µM) | relative viability (BAM7 + AZD7762; first compound 0.5 µM) | relative viability (BAM7 + AZD7762; first compound 5 µM) | relative viability (BAM7 + AZD7762; first compound 15.81 µM) | relative viability (BAM7 + AZD7762; first compound 50 µM) | relative viability ([1]; first compound 0.01 µM) | relative viability ([1]; first compound 0.03162 µM) | relative viability ([1]; first compound 0.1 µM) | relative viability ([1]; first compound 0.3162 µM) | relative viability ([1]; first compound 1 µM)
1 | NCI-H2342 | 0.584 | 0.587 | 0.604 | 0.566 | 0.453 | 0.519 | 0.387 | 0.374 | 0.53 | 0.61 | 0.431 | 0.388 |  |  |  |  | 
2 | SK-MES-1 | 0.573 | 0.549 | 0.545 | 0.663 | 1.03 | 0.907 | 0.752 | 0.772 |  |  |  |  | 0.87 | 0.916 | 0.856 | 1.11 | 0.953
3 | HCC-366 | 0.879 | 0.839 | 0.729 | 0.784 | 0.0637 | 0.0775 | 0.062 | 0.0627 | 0.173 | 0.19 | 0.191 | 0.186 | 0.362 | 0.427 | 0.293 | 0.475 | 0.386
4 | 201T | 0.772 | 0.662 | 0.708 | 0.705 | 0.737 | 0.805 | 0.673 | 0.726 | 0.705 | 0.688 | 0.715 | 0.678 | 0.989 | 0.992 | 0.99 | 0.978 | 1.02
5 | HCC-827 | 0.798 | 0.794 | 0.775 | 0.822 | 0.405 | 0.433 | 0.395 | 0.388 | 0.199 | 0.201 | 0.284 | 0.182 | 1.01 | 0.93 | 0.948 | 1 | 1.05
6 | NCI-H647 | 0.613 | 0.622 | 0.549 | 0.68 | 0.309 | 0.333 | 0.294 | 0.247 | 0.559 | 0.488 | 0.592 | 0.459 | 1.2 | 1.17 | 1.02 | 1.03 | 1.23
7 | NCI-H2023 | 0.357 | 0.347 | 0.297 | 0.506 | 0.234 | 0.161 | 0.125 | 0.177 |  |  |  |  | 0.636 | 0.625 | 0.539 | 0.504 | 0.559
8 | NCI-H520 | 0.305 | 0.263 | 0.293 | 0.356 | 0.416 | 0.51 | 0.436 | 0.405 |  |  |  |  | 1.01 | 0.883 | 0.605 | 0.851 | 0.547
9 | RERF-LC-KJ | 0.472 | 0.422 | 0.334 | 0.404 | 0.413 | 0.264 | 0.231 | 0.249 | 0.992 | 1.11 | 0.855 | 0.627 | 0.886 | 0.958 | 0.737 | 0.656 | 0.781
10 | A-427 | 0.58 | 0.466 | 0.491 | 0.49 | 0.202 | 0.199 | 0.216 | 0.202 | 0.743 | 0.848 | 0.802 | 0.737 | 0.998 | 1.11 | 1.05 | 0.997 | 1.14
11 | NCI-H441 | 0.578 | 0.574 | 0.639 | 0.694 | 0.643 | 0.562 | 0.526 | 0.627 | 1.35 | 1.46 | 0.888 | 1.12 | 0.653 | 0.891 | 0.749 | 0.683 | 0.717
12 | NCI-H1703 |  |  |  |  |  |  |  |  | 0.14 | 0.115 | 0.122 | 0.132 | 0.333 | 0.374 | 0.392 | 0.28 | 0.299
13 | NCI-H1792 | 0.694 | 0.71 | 0.553 | 0.624 |  |  |  |  | 0.681 | 0.65 | 0.605 | 0.633 | 0.776 | 0.697 | 0.667 | 0.596 | 0.791
14 | Calu-6 |  |  |  |  |  |  |  |  |  |  |  |  | 0.92 | 1.08 | 1.02 | 0.963 | 1.14
15 | SK-LU-1 | 0.33 | 0.362 | 0.345 | 0.343 | 0.332 | 0.449 | 0.341 | 0.323 |  |  |  |  | 1.08 | 1.26 | 0.968 | 1 | 1.13
16 | PC-3 [JPC-3] | 0.668 | 0.698 | 0.698 | 0.668 | 0.776 | 0.7 | 0.72 | 0.735 | 0.889 | 0.74 | 0.64 | 0.686 | 1.16 | 1.02 | 0.977 | 1.02 | 1.02
17 | EMC-BAC-2 | 0.378 | 0.384 | 0.355 | 0.461 | 0.302 | 0.291 | 0.289 | 0.272 | 1.15 | 0.999 | 1.22 | 1.24 | 0.756 | 0.73 | 0.7 | 0.759 | 0.784
18 | LK-2 | 0.206 | 0.205 | 0.225 | 0.218 | 0.173 | 0.174 | 0.15 | 0.173 | 0.407 | 0.472 | 0.515 | 0.404 | 1.24 | 1.27 | 0.984 | 0.916 | 1.01
